Series [1] relates to Culex pipiens. Briefly: Mosquito larval bioassay, toxin added to water. The format is in vivo. The conditions noted are these: 250 µg.ml^-1 of water. The procedure:
The mosquito bioassay was performed on larvae of Culex pipiens (Diptera) in water. The toxin was added directly to the water, and the mortality of L3 larvae was recorded daily.
(§1) All toxicity assays were carried out using a mixture of PA1b isoforms (98% purity by HPLC). All tests were performed on at least 30 insects for assays and for control test (without toxin), except for the three aphid species (50 insects) and for Trichogramma (more than 300 eggs by assays). When adults were used, the insects were synchronized at the imaginal molt. The statistical analyses were performed using the JMP software (SAS, Grégy-sur-Yerres FRA).

Series [2] concerns Trichogramma pretiosum. Briefly: Trichogramma development from eggs to adults on artificial diet with toxin. Type of series: in vivo. To be noted: PA1b added to artificial diet; no difference in developmental times compared to control. The protocol:
Trichogramma pretiosium. T191 (Hymenoptera) were grown using the artificial diet described in Grenier et al. ([1998]). The toxin was incorporated into the diet, and the development of insects was monitored from eggs to adults.
as §1

Series [3] concerns the target PA1b binding protein on membrane extracts. Put plainly: 125I-PA1b binding (competition) on insect membrane extracts. Further details: species or system Bruchus pisorum. To be noted: B. pisorum membrane extracts; competition with purified 3741 isoform. The protocol: (§2) The isolation of membrane proteins for binding studies was performed as described by Gressent et al. ([2003]). For PA1b degradation tests, insect extracts were prepared as follows, 1 g of insects were ground with a mortar and pestle in liquid nitrogen. The resulting powder was resuspended in 2 ml of extraction buffer (20 mM Tris-HCl pH 8; 0.25 M sucrose; 2 mM MgCl2). The slurry was centrifuged for 2 min at 1000 g, and the supernatant was stored at -2O°C until required. All the operations were performed at 4°C.
(§3) The peptidic toxin PA1b-3471 isoform was labelled with I^125 to a specific radioactivity of about 900 Ci.mmor^-1, and then used for binding studies with membrane extracts, according to Gressent et al. ([2003]).
(§4) PA1b binding activity was present in all insect species, except for the resistant weevil strains and the pea specific pest Bruchus pisorum, regardless of the sensitivity or insensitivity of these insects to PA1b toxicity, as evaluated from our insect bioassays. […] The relative abundance of the binding sites was also slightly different in this group of species, varying from 10 pmol/mg of protein for T. pretiosum to a maximum of 79 pmol/mg of protein for M. persicae.

Series [4] has the same target. Described as above. More on the design: species or system Drosophila melanogaster. The conditions noted are these: D. melanogaster membrane extracts; competition with purified 3741 isoform. The protocol:
as §2, §3, §4

For series [5] the target is unchanged. The series is described as above. More on the design: species or system Myzus persicae. The conditions noted are these: M. persicae membrane extracts; competition with purified 3741 isoform. The procedure: as §2, §3, §4
Series [6] has as its system A. gossypii protein extracts. Put plainly: PA1b degradation assay with total insect protein extract. The format is in vitro ADME, Aphis gossypii. The conditions noted are these: 200 µg A. gossypii (L4) proteins, 10 µg PA1b in 100 µl, 20 mM buffers pH 3 to 9, 30°C, one night incubation; C18 HPLC, UV 210 nm; mean of triplicates. The procedure: as §2
(§5) PA1b degradation assays were performed using 10 µg of peptide (PA1b isoform mixture) in a final volume of 100 µl buffer. […]
(§6) For all assays, after a one night incubation, 150 µl of methanol were added to the mixture and incubated for 60 min at 4°C. […] PA1b peptide isoforms were detected by their absorbance at 210 nm, quantified by the measurement of the peak area and with reference to known quantities of pure peptide isoform used as standards.
Figure 3. […] Degradation of PA1b was monitored after incubation by reverse-phase HPLC. […]

Series [7] relates to M. brassicae protein extracts. The description is as above. Type of series: in vitro ADME, Mamestra brassicae. To be noted: 200 µg M. brassicae (L3) total protein extract, 10 µg PA1b, pH 3 to 9, 30°C, one night incubation; C18 HPLC; data not shown. The procedure:
as §2, §5, §6

The test system of series [8] is gut extracts from M. brassicae. The format is in vitro ADME, Mamestra brassicae. To be noted: 400 µg M. brassicae gut proteins per assay, 10 µg PA1b, pH 3 to 9, 30°C, one night incubation; C18 HPLC; data not shown. The protocol: PA1b degradation assays were performed using 10 µg of peptide (PA1b isoform mixture) in a final volume of 100 µl buffer. Assays with commercially (SIGMA, www.sigmaaldrich.com) available enzymes were performed in Glycine-NaOH buffer (20 mM pH 9) at 3O°C for proteinase K (E.C. 3.4.21.64), Tris-HCl buffer (20 mM pH 7.5) + EDTA 10 mM at 37°C for pronase E type XIV, MES-NaOH buffer (20 mM pH 6.2) at 25°C for papain (E.C. 3.4.22.2), Tris-HCl buffer (20 mM pH 7.8) at 25°C for chymotrypsin (E.C. 3.4.21.1), and Tris-HCl buffer (20 mM pH 7.6) at 25°C for trypsin (E.C. 3.4.21.4). Assays were done with 10 µg of each enzyme, and control assays were performed with 10 µg of enzymes denaturated by 10 min boiling. Assays with insect extracts were carried out in 20 mM buffers from pH 3 to 9 (Glycine-HCl, pH 3; sodium acetate pH 4-5; MES-NaOH pH 6; Tris-HCl pH 7-8; Glycine NaOH pH 9) at 3O°C. […]
For all assays, after a one night incubation, 150 µl of methanol were added to the mixture and incubated for 60 min at 4°C. […] PA1b peptide isoforms were detected by their absorbance at 210 nm, quantified by the measurement of the peak area and with reference to known quantities of pure peptide isoform used as standards. […]

Series [9] deals with Ephestia kuehniella. The conditions noted are these: ref Delobel et al 1998; cited from earlier work. The procedure:
Ephestia kuehniella was previously found to be sensitive to the toxin ([Delobel et al 1998]). In contrast, 1000 µg PA1b per g of diet had no effect on the cabbage moth Mamestra brassicae, either on the mortality or on the development and ecdysis of the insects (data not shown).

The test system of series [10] is Drosophila melanogaster. To be noted: cited from earlier work. The procedure: However, diet is not sufficient alone to explain insensitivity, as the three aphid species tested were assayed on the same artificial diet with very different results. We can thus suppose ...

Results on one sequence are retold here after publication PMC2999418, “Biological Activity and Binding Site Characteristics of the PA1b Entomotoxin on Insects from Different Orders” (Journal of Insect Science, 2007).

Usually Kd stands for the free concentration of one partner at which half of the binding sites on the other are occupied at equilibrium, for simple one-to-one binding.

“ASCNGVCSPFEMPPCGTSACRCIPVGLVIGYCR NPSG (bicyclic or more) [PA1b, plant peptide of 37 amino acids purified from pea (Pisum sativum) seeds; entomotoxic cystine-knot peptide with three disulfide bonds]”: the results for the “survival of L3 larvae” value in series [1] (after one day) and in series [1] (after two days) were 100% and 0%, respectively. Moreover, the “growth and development from eggs to adults” value in [2] is listed as “normal growth”. In addition, in [3], the Kd / binding result is listed as “no binding detectable”. The dissociation constant Kd in series [4] stood at 16 nM; in [5], 62 nM. Also, the “recovered PA1b after incubation with insect proteins versus heat-denatured control” value in series [6] is “very close to the control test”; in series [7], “without any difference between control and test assays”. Further, in series [8], the “recovery of PA1b after incubation with native or heat inactivated gut proteins” value is reported as “no difference”. Also, the “sensitivity to the toxin” value is given as “sensitive” in series [9] and “insensitive” in [10] (ref Delobel et al.1998). Further, the “toxicity to larvae grown on a fruit-based mixture” value in series [10] (fruit-based mixture diet, dose similar to that used on other insects, delayed larval development, increased larval mortality, ref Gressent, unpublished results) is listed as “significantly toxic”.
